This passage reports residual activity and inhibition results from ChEMBL document CHEMBL4507281, “Data for DCP probe BI-4394” (2021).

What all share (conditions): Compound concentration 10.0 uM
Assay [1] has as its target Serine/threonine-protein kinase PLK1 (Homo sapiens) (UniProt P53350).
For assay [2], the target named is Proto-oncogene tyrosine-protein kinase receptor Ret (Homo sapiens) (UniProt P07949).
The target in assay [3] is T1, Phosphorylase b kinase regulatory subunit alpha, liver isoform (Homo sapiens) (UniProt P46019).
T1 sequence (whole entry): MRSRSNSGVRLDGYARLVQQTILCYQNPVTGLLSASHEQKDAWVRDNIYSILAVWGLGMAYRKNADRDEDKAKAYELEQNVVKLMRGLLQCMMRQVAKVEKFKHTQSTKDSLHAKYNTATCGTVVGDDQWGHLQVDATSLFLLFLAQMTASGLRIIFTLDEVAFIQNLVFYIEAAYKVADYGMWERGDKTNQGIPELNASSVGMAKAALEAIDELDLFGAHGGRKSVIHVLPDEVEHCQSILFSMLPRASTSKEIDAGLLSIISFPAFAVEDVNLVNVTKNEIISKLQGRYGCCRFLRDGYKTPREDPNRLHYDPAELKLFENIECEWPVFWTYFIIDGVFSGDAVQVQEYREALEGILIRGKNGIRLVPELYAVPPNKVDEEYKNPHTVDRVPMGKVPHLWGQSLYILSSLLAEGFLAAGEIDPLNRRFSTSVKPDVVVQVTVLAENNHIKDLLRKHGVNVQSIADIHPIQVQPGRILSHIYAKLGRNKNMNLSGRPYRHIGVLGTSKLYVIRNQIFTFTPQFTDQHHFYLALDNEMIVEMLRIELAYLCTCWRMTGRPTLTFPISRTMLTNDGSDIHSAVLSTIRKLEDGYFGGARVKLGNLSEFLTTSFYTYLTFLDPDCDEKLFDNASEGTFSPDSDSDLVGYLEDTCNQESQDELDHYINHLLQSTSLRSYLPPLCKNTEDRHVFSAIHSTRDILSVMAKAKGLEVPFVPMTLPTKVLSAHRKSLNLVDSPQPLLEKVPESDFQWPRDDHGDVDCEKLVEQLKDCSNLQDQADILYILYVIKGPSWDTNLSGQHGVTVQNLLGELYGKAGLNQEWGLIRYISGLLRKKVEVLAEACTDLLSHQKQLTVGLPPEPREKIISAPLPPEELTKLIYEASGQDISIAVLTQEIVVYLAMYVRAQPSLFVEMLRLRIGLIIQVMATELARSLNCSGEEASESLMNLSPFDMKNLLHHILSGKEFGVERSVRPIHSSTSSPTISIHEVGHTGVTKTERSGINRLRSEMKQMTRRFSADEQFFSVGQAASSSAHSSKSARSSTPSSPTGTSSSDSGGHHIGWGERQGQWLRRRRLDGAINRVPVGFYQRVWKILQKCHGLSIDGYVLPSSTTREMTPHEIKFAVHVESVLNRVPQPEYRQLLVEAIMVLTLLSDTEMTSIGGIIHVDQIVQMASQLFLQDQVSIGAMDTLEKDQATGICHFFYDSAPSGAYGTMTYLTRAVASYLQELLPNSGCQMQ

Assay [4] deals with Mitogen-activated protein kinase kinase kinase kinase 4 (Homo sapiens) (UniProt O95819).
The target in assay [5] is Mitogen-activated protein kinase kinase kinase 9 (Homo sapiens) (UniProt P80192).
Assay [6] concerns the target Insulin receptor (Homo sapiens) (UniProt P06213).
The target of assay [7] is cAMP-dependent protein kinase catalytic subunit alpha (Homo sapiens) (UniProt P17612).
Assay [8] deals with T2, Protein kinase C epsilon type (Homo sapiens) (UniProt Q02156).
T2 sequence (whole entry): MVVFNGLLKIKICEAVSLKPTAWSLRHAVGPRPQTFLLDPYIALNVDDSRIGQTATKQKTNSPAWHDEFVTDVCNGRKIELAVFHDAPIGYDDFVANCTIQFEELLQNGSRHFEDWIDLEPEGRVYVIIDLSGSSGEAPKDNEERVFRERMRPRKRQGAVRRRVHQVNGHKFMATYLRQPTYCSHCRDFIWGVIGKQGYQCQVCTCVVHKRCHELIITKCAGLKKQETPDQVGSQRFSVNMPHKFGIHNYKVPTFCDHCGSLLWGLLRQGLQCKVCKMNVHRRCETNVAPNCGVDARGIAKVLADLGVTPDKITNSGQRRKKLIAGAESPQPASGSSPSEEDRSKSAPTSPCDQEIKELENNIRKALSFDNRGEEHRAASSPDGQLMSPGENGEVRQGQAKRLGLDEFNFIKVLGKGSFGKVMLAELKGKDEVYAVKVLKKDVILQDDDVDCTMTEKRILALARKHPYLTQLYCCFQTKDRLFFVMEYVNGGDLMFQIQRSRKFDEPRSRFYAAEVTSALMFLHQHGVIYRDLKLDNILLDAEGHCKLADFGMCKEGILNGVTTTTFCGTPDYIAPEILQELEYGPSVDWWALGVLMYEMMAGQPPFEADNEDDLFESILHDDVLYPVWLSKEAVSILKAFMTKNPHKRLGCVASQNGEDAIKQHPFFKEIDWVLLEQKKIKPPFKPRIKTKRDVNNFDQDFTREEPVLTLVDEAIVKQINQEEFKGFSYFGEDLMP

For assay [9], the target named is Sodium-dependent dopamine transporter (Homo sapiens) (UniProt Q01959).
Assay [10] concerns the target 5-hydroxytryptamine receptor 1A (Homo sapiens) (UniProt P08908).

Each structure is given as a SMILES string.

Chain of Insulin receptor (Homo sapiens) (P06213 28-758 limits assumed): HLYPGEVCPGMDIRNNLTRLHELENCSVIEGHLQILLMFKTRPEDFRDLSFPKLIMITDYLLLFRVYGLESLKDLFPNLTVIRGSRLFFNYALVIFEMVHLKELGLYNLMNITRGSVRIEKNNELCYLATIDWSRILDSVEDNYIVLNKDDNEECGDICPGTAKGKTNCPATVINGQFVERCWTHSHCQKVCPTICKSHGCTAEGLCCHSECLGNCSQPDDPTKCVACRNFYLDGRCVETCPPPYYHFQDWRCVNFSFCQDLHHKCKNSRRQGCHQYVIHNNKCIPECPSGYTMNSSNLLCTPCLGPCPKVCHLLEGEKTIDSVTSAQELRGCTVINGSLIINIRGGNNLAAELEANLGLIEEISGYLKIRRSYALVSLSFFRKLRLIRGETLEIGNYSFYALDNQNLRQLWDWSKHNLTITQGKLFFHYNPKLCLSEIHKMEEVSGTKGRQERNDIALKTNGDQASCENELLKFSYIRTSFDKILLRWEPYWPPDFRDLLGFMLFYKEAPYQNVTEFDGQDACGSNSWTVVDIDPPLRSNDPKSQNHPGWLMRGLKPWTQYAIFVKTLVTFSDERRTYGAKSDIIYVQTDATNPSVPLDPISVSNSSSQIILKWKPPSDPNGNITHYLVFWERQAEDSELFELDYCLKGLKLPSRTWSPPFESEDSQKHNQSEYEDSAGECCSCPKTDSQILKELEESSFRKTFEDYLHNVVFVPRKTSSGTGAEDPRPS
Chain of Insulin receptor (Homo sapiens) (P06213 763-1382 limits assumed): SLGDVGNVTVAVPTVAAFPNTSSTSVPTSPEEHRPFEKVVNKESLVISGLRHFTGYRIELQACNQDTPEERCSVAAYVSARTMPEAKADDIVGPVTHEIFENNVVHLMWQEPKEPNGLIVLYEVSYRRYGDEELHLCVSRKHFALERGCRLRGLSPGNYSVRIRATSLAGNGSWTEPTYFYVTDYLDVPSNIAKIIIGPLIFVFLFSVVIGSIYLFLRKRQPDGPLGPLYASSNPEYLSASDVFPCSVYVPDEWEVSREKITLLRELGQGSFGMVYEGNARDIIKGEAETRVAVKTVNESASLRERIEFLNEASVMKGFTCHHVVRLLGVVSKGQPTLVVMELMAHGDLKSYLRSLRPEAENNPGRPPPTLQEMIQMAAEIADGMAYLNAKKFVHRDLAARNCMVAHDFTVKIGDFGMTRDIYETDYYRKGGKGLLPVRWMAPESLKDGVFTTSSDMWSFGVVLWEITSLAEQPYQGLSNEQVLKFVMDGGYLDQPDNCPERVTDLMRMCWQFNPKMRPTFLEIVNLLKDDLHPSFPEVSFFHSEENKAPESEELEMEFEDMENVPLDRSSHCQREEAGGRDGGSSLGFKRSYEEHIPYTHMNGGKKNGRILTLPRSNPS
Chain of Serine/threonine-protein kinase PLK1 (Homo sapiens) (P53350 whole entry): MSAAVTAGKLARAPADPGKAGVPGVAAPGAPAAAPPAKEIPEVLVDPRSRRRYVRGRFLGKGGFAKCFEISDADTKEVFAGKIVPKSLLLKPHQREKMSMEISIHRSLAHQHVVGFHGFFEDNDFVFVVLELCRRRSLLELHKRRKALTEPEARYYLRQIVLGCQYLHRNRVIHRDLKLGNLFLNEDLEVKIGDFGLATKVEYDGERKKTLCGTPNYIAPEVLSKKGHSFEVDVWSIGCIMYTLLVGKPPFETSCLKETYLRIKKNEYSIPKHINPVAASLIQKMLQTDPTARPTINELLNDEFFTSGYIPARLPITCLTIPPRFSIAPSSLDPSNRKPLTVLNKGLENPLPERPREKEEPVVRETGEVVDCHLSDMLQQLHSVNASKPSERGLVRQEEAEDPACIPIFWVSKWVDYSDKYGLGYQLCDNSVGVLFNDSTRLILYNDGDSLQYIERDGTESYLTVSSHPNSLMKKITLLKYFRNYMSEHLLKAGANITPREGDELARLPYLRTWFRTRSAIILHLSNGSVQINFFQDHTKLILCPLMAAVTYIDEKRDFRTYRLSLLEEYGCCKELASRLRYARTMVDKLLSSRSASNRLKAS
Chain of Mitogen-activated protein kinase kinase kinase kinase 4 (Homo sapiens) (O95819 2-1239 limits assumed): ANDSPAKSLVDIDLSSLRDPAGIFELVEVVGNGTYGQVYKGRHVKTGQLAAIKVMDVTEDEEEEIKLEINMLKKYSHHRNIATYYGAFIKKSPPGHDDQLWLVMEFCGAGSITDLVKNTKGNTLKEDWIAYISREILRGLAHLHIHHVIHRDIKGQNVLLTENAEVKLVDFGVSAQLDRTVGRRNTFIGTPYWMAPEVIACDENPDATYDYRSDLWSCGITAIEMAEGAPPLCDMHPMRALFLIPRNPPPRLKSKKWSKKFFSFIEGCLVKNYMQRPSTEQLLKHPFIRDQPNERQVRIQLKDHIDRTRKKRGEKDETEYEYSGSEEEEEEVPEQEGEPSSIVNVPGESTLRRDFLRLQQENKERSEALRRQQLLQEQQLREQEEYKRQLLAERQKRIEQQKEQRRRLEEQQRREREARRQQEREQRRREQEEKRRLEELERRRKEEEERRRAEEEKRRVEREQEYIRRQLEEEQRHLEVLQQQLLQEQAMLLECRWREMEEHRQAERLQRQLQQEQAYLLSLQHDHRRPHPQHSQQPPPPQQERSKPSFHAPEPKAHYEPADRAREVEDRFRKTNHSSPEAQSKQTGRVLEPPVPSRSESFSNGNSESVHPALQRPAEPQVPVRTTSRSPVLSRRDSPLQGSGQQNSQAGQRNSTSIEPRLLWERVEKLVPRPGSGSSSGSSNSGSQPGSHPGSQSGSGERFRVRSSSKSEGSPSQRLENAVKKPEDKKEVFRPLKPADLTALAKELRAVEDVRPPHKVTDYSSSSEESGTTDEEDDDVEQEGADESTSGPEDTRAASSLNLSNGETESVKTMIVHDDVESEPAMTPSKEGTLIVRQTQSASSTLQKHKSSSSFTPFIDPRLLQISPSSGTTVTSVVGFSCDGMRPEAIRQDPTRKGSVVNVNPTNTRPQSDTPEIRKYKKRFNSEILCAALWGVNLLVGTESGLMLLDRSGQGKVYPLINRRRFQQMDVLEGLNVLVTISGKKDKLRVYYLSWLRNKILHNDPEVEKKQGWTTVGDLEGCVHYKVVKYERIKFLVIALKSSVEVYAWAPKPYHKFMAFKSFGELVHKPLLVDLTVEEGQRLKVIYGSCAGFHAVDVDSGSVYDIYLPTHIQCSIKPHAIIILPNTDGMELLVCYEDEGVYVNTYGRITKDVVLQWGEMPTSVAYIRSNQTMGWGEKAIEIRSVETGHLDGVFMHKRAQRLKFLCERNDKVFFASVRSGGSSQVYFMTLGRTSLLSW
Chain of Proto-oncogene tyrosine-protein kinase receptor Ret (Homo sapiens) (P07949 whole entry, canonical isoform): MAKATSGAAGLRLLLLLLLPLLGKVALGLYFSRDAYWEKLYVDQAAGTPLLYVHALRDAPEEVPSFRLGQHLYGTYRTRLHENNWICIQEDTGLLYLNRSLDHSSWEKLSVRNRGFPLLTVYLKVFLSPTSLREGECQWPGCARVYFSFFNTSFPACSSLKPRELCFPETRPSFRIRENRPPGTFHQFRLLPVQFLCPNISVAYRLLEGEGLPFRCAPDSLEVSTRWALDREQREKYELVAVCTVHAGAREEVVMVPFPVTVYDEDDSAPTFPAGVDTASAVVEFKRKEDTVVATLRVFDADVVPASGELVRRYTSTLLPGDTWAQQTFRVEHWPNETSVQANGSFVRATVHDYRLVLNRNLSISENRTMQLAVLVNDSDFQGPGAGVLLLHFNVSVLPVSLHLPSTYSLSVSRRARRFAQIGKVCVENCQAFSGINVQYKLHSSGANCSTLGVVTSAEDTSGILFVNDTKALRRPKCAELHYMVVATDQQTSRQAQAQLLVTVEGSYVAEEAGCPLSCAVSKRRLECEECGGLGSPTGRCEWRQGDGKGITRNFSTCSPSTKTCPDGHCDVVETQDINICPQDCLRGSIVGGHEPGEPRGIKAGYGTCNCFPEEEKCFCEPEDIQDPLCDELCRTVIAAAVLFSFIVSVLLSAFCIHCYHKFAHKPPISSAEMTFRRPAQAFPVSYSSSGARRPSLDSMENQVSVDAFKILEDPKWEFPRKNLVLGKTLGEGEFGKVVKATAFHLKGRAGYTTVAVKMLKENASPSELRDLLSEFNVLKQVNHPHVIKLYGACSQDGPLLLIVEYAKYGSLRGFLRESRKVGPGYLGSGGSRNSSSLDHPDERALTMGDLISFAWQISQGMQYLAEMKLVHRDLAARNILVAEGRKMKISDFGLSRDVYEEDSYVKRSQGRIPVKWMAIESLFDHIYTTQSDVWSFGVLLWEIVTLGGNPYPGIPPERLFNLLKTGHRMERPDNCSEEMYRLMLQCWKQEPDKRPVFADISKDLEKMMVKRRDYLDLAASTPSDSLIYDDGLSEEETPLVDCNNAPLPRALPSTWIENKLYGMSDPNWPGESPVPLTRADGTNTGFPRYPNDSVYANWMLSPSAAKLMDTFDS
Chain of 5-hydroxytryptamine receptor 1A (Homo sapiens) (P08908 whole entry): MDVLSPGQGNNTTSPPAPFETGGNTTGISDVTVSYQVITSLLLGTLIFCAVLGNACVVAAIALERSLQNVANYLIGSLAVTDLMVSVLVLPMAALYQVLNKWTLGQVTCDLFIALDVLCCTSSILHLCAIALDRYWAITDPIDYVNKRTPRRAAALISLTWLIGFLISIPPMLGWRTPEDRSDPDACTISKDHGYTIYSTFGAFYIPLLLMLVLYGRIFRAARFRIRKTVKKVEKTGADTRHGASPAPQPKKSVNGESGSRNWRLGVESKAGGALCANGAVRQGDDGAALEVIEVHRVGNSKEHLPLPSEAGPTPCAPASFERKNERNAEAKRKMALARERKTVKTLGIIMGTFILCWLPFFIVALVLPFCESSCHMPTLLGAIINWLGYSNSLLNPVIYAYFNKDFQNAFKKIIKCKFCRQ

One may read the inhibition as how much of the control response was suppressed. Regarding `CCOC(=O)c1cc2cc(-c3cc(C(=O)NCc4ccc(C(=O)O)cc4)nn3C)ccc2[nH]1` [BI 4394], the residual activity in assay [1] was 73%; in [2], 64%; in assay [3], 82%; in assay [4] it was 32%; in [5], 93%; in assay [6], 98%. In addition, the figures for the residual activity in [7] and in [8] were 10% and 115%, respectively. Besides, the inhibition in assay [9] is 2.26%.
With `Cn1nc(C(=O)NCc2ccc(C(=O)O)cc2)cc1-c1ccc2[nH]ccc2c1` [BI 4395], the inhibition in assay [10] was 22.7%.
